Data reported in US20260297105A1, “RAF-MEK PROTEIN COMPLEX MODULATORS AND METHODS OF USE THEREOF” (GANDEEVA THERAPEUTICS, INC., priority 2023, published 2026).

What was measured:
MEK1 = biological target: T1, MEK1 (Homo sapiens, UniProt Q02750); assay: MEK1 kinase cascade assay (ADP-Glo), inhibition of MEK1 kinase activity; type: biochemical; details: 25 nM BRAF, 6.25 nM MEK1, 0.5 μM ERK, 1 mM ATP; 20 min preincubation, 1 hr at 25° C.; read-out: BRAF ADP Glo kinase assay V3 (IC50)
T1 construct: purchased SignalChem M02-14H
Method in brief: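 Compounds were preincubated 20 mins at 25° C with 25 nM BRAF(445-723) in 10 mM HEPES pH 7.5, 5 mM MgCl2, 2 mM CHAPS, 1 mM DTT, then 6.25 nM MEK1, 0.5 μM ERK1 and 1 mM ATP were added for 1 hr at 25° C, with 1% DMSO. ADP-Glo luminescence was normalized to DMSO and 1 μM Trametinib; IC50 came from 4-parameter fits of duplicates.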

BRAF-MEK1 = assay: BRAF-MEK TR-FRET assay, stabilization of MEK1 and BRAF interaction; type: binding; details: 4 nM BRAF, 10 nM MEK, 100 μM ATP; 1 hr at 25° C.; read-out: BRAF-MEK TR-FRET Assay (EC50, fold stabilization)
Method in brief: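 His-MEK1 (full-length, E. coli) at 10 nM with GST-BRAF at 4 nM, 1 h at 25° C in pH 7.5 Tris buffer with 5 mM MgCl2 and 100 μM ATP; anti-His-Tb/anti-GST-XL665 added for 1 h more. 665/620 FRET ratio over DMSO gives fold stabilization; EC50 from 4-parameter fit, duplicate wells.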

p-ERK1/2 in HCT116 cells = assay: AlphaLISA p-ERK assay, cellular inhibition of ERK phosphorylation in HCT116 cells; type: cell-based; details: Homo sapiens, HCT-116, 2 hours treatment, PMA stimulation 30 mins
Experimental: Cell culture: HCTI 16, HT-29, and NCI-H292 cells were acquired from American Type Culture Collection (ATCC). HCT116 and HT-29 cells were maintained in ATCC-formulated McCoy's 5a Medium Modified supplemented with 10% fetal bovine serum, NCI-H292 cells were cultured in ATCC formulated RPMI-1640 supplemented with 10% fetal bovine serum. All cells were maintained at 37° C., 5% CO2.
Efficacy of exemplary compounds in cellular inhibition of ERK phosphorylation: Phosphorylation status of ERK1/2 (p-ERK) was used as a readout for inhibition of BRAF-MEK pathway. p-ERK was detected using an immunoassay for quantitative detection of phospho-ERK 1/2 (phosphorylated on Thr202/Tyr204 in ERK1, or Thr185/Tyr187 in ERK2), such as the AlphaLISA® SureFire® Ultra™ p-ERK1/2 (Thr202/Tyr204) kit (Perkin Elmer). HCT116 cells were plated at 10,000 cells per well in 384-well TC-treated plates (Coming). Cells were plated for 24 hours, the medium was then aspirated and cells were treated with vehicle (DMSO) or test compounds (0.1% DMSO in final volume) prepared in serum free, phenol red free medium for 2 hours. Following treatment, cells were stimulated with PMA (1.25 μM/well) for 30 mins after which the medium was aspirated, and the cells were lysed for 10 mins with 1× lysis buffer supplemented with Halt Protease and Phosphatase Inhibitor Cocktail (Thermo Fisher). The lysate was transferred to a 384 well Alpha-plate (PerkinElmer) and incubated for 1 hour with acceptor bead mix followed by 1 hour incubation with donor bead mix. After incubation, the plate was read on a Cytation5 microplate reader (Agilent). % inhibition as a function of compound concentration from 3 replicate wells was fit with a 4-parameter logistic curve using GraphPad Prism or CDD Vault to derive IC50 values.
In this table, for the BRAF ADP Glo kinase assay, “A” indicates IC50 of less than 5 nM; “B” indicates IC50 of between 5 nM to 50 nM; and “C” indicates IC50 of between 50 nM to 500 nM. “D” indicates IC50 of greater than 500 nM. For the BRAF-MEK TR-FRET assay, “A” indicates EC50 of less than 50 nM; “B” indicates EC50 of between 50 nM to 200 nM; and “C” indicates EC50 of between 200 nM to 1 μM. “D′” indicates EC50 of greater than 1 μM. For the AlphaLisa P-ERK assay, “A” indicates IC50 of less than 1 nM; “B” indicates IC50 of between 1 nM to 10 nM; and “C” indicates IC50 of between 10 nM to 100 nM. “D” indicates IC50 of greater than 100 nM. For the cell viability assay, “A” indicates IC50 of less than 1 nM; “B” indicates IC50 of between 1 nM to 10 nM; and “C” indicates IC50 of between 10 nM to 100 nM. “D” indicates IC50 of greater than 100 nM.

NCI-H292 cells = assay: Cell viability assay (CellTiter-Glo), NCI-H292; type: cell-based; details: Homo sapiens, 72 hrs, read-out: Cell Viability Assay: IC50 Determination NCI-H292
Method in brief: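 Cells seeded at 2,000 per well in RPMI-1640 with 10% FBS, treated 24 h later with compound (0.1% DMSO) for 72 h. Viability read by CellTiter-Glo luminescence; IC50 from 4-parameter logistic fit of % inhibition over 3 replicate wells.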

T1 sequence (Q02750 whole entry): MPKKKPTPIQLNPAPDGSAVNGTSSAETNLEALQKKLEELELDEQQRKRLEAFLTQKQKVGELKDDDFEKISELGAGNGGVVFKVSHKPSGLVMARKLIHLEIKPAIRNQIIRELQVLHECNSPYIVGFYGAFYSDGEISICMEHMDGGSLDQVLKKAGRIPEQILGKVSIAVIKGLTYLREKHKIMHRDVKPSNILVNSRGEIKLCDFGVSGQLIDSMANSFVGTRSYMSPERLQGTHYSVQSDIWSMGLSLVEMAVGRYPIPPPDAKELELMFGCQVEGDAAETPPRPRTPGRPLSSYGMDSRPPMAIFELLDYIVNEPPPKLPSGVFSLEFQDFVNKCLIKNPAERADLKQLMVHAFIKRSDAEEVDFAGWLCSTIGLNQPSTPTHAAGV
T1 sequence (P15056 445-723 partner limits assumed): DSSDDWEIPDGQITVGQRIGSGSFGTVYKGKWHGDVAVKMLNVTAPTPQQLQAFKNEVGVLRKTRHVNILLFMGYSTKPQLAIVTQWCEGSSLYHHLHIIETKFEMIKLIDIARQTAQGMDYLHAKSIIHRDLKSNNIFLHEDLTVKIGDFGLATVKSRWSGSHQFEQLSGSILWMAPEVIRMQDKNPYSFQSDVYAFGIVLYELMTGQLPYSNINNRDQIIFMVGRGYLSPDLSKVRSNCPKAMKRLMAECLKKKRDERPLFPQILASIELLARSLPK

## CNS(=O)(=O)Nc1cccc(CN2C(=O)Oc3cc(Oc4ncco4)ccc3C23COC3)c1F [Compound 95, 3-({2-fluoro-3-[(methylsulfamoyl)amino]phenyl}methyl)-7-(1,3-oxazol-2-yloxy)-2,3-dihydrospiro[1,3-benzoxazine-4,3′-oxetan]-2-one]
MEK1
  IC50: < 5 nM
BRAF-MEK1
  EC50: 50 to 200 nM
p-ERK1/2 in HCT116 cells
  IC50: 1 to 10 nM
NCI-H292 cells
  IC50: 1 to 10 nM

## CNS(=O)(=O)Nc1nccc(CN2C(=O)Oc3cc(Oc4ncco4)ccc3C23COC3)c1F [Compound 68, 3-({3-fluoro-2-[(methylsulfamoyl)amino]pyridin-4-yl}methyl)-7-(1,3-oxazol-2-yloxy)-2,3-dihydrospiro[1,3-benzoxazine-4,3′-oxetan]-2-one]
MEK1
  IC50: 5 to 50 nM
BRAF-MEK1
  EC50: 50 to 200 nM
p-ERK1/2 in HCT116 cells
  IC50: 10 to 100 nM
NCI-H292 cells
  IC50: 1 to 10 nM

## CNS(=O)(=O)Nc1cccc(CN2C(=O)Oc3cc(Oc4cccnn4)c(F)cc3C23COC3)c1F [Compound 58, 6-fluoro-3-({2-fluoro-3-[(methylsulfamoyl)amino]phenyl}methyl)-7-(pyridazin-3-yloxy)-2,3-dihydrospiro[1,3-benzoxazine-4,3′-oxetan]-2-one]
MEK1
  IC50: < 5 nM
BRAF-MEK1
  EC50: < 50 nM
p-ERK1/2 in HCT116 cells
  IC50: < 1 nM
NCI-H292 cells
  IC50: < 1 nM
